Measured values from patent US4387102A, “4-(N-(3',4'-Methylenedioxybenzylidene)-aminomethyl)cyclohex ane-1-carboxylic acid and derivatives thereof and pharmaceutical composition thereof” (Kureha Kagaku Kogyo Kabushiki Kaisha, priority 1980, dated 1983).

Experiments:
[1] = system: polymorphonuclear leukocytes; assay: Inhibition of migration of polymorphonuclear leukocytes to the inflammatory region (Granuloma-CMC-Pouch method); assay type: in vivo, rat; conditions: single oral dose, male Donryu rats, present compound 100 mg/kg, indomethacin 10 mg/kg (footnote)
Protocol: Tests for inhibition of migration of polymorphonuclear leukocytes to the inflammatory region due to sodium 4-[N-(3',4'-methylenedioxybenzylidene)aminomethyl]cyclohexane-1-carboxylate were carried out following the method of Granuloma-CMC-Pouch (refer to Ishikawa et al. J. Pharmaceut. Soc. Jap., Vol. 88, page 1472, 1968).
Namely, after cutting the hair on the back of male rats (Donryu, body weight: 150 g), 5 ml of air was injected subcutaneously into the hair-cut region and further, 5 ml of aqueous 2% (W/V) solution of sodium carboxymethyl cellulose (CMC) at 37° C. was injected.
Specimens of the liquid (0.5 ml, each) effused into the pouch were collected at 3, 6 and 24 hours after 2% CMC solution were injected respectively and then the number of polymorphonuclear leukocytes in the specimen was counted after staining to determine the rate of inhibition of migration of the polymorpholeukocyte as compared to the number of the polymorpholeukocytes in the specimen collected from control animal to which the aqueous CMC solution was injected after air injection.
In this test, sodium 4-[N-(3',4'-methylenedioxybenzylidene)aminomethyl]cyclohexane-1-carboxylate was orally administered as a solution in aqueous physiological saline solution at a dose of 100 mg/kg at the time of injecting the solution of CMC, and as a control, […] at the time of injecting the solution of CMC.

female JCL-ICR mice = assay: Acute oral toxicity test; assay type: in vivo, mouse; conditions: 3000 mg/kg, female JCL-ICR mice of five weeks
Protocol: (5-2) Acute oral toxicity test were carried out by orally administering aqueous solutions of sodium 4-[N-(3',4'-methylenedioxybenzylidene)aminomethyl]cyclohexane-1-carboxylate to groups of female JCL-ICR mice of five weeks after birth.

rabbit's platelets = assay: Inhibition of blood platelet aggregation induced by sodium arachidonate (platelet aggregation tracer PAT 4A); assay type: cell-based; conditions: 400 micromols sodium arachidonate
Protocol: (5-1) Test for inhibition of platelet aggregation was carried out while using rabbit's platelets, an aqueous physiological saline solution of sodium 4-[N-([…]-methylenedioxybenzylidene)aminomethyl]cyclohexane-1-carboxylate and 400 micromols of sodium arachidonate as the aggregation agent in a platelet aggregation tracer PAT 4A (made by Niko Bioscience Company, Japan) as the testing apparatus.

[2] = 3 hours of injection of CMC, control 3.5 × 10^3
[3] = 6 hours of injection of CMC, control 5.9 × 10^3
[4] = 24 hours of injection of CMC, control 14.9 × 10^3

| Compound | R.I. (inhibitory rate of migration of polymorphonuclear leukocytes into the pouch as compared to control) ([1]; 3 hours of injection of CMC) [%] | Number of polymorphonuclear leukocytes [1, 2] | R.I. (inhibitory rate of migration of polymorphonuclear leukocytes into the pouch as compared to control) ([1]; 6 hours of injection of CMC) [%] | Number of polymorphonuclear leukocytes [1, 3] | R.I. (inhibitory rate of migration of polymorphonuclear leukocytes into the pouch as compared to control) ([1]; 24 hours of injection of CMC) [%] | Number of polymorphonuclear leukocytes [1, 4] | abnormality in acute oral toxicity test (female JCL-ICR mice) | percent of inhibition of the aggregation of the platelets by sodium arachidonate (rabbit's platelets; 500 micromols compound) [%] | percent of inhibition of the aggregation of the platelets by sodium arachidonate (rabbit's platelets; 1000 micromols compound) [%] | percent of inhibition of the aggregation of the platelets by sodium arachidonate (rabbit's platelets; 1500 micromols compound) [%] |
| --- | --- | --- | --- | --- | --- | --- | --- | --- | --- | --- |
| COc1ccc2c(c1)c(CC(=O)O)c(C)n2C(=O)c1ccc(Cl)cc1 [Indomethacin, indomethacin, reference compound] | 34 | 2.3 × 10^3 Number/mm^3 | 31 | 4.1 × 10^3 Number/mm^3 | 28 | 10.8 × 10^3 Number/mm^3 |  |  |  |  |
| O=C([O-])C1CCC(CN=Cc2ccc3c(c2)OCO3)CC1.[Na+] (stereo not shown) [Present compound, sodium 4-[N-(3',4'-methylenedioxybenzylidene)aminomethyl]cyclohexane-1-carboxylate] | 46 | 1.9 × 10^3 Number/mm^3 | 54 | 2.7 × 10^3 Number/mm^3 | 32 | 10.1 × 10^3 Number/mm^3 | no abnormality was found | 30 | 75 | 100 |
